Source: patent publication US6881741B2 (ViroChem Pharma Inc., priority 2001, dated 2005)

Target: recombinant HCV NS5B (HCV RNA-dependent RNA polymerase) (Hepatitis C virus genotype 1b, UniProt P26663)
Assay: biochemical
Conditions: HCV polymerase activity, list of compounds of Example 27; read-out: IC50 (polymerase activity)

recombinant HCV NS5B (HCV RNA-dependent RNA polymerase), sequence (P26663 2420-3010 limits assumed): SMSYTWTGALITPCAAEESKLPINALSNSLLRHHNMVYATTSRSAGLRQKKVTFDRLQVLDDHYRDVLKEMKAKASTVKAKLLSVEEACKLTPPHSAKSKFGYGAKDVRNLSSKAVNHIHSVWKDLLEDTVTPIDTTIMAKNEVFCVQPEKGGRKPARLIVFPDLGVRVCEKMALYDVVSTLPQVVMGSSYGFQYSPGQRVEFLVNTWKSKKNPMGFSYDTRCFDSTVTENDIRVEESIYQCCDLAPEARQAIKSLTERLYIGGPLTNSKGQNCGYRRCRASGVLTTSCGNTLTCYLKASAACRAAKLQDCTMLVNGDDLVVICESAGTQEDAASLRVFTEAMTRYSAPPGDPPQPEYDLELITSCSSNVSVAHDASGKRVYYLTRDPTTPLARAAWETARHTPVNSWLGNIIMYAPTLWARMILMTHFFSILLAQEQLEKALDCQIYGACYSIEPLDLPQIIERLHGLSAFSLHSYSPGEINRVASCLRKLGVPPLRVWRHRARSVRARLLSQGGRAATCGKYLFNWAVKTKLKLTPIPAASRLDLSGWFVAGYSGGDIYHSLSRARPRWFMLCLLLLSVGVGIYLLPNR

`Cc1ccc(S(=O)(=O)Nc2cc(-c3ccccc3)sc2C(=O)NC2CCC2)cc1` [Compound 567, 5-PHENYL-3-(TOLUENE-4- SULFONYLAMINO)-THIOPHENE-2- CARBOXYLIC ACID CYCLOBUTYLAMIDE] and `COc1ccc(-c2cc(NS(=O)(=O)c3ccc(C)cc3)c(C(N)=O)s2)cc1` [Compound 565, 5-(4-METHOXY-PHENYL)-3-(TOLUENE-4- SULFONYLAMINO)-THIOPHENE-2- CARBOXYLIC ACID AMIDE] fall in the same range of IC50: 5 to 20 µM for the first, 5 to 20 µM for the second.

First: O=C(O)c1sc(-c2ccccc2)cc1N(Cc1ccc([N+](=O)[O-])cc1)C(=O)CC1CCCC1 [Compound 443, 3-[(2-CYCLOPENTYL-ACETYL)-(4-NITRO- BENZYL)-AMINO]-5-PHENYL-THIOPHENE- 2-CARBOXYLIC ACID]
Second: O=C(O)c1sc(-c2ccccc2)cc1N(Cc1ccc(Cl)cc1)C(=O)C1CC1 [Compound 459, 3-[(4-CHLORO-BENZYL)- CYCLOPROPANECARBONYL-AMINO]-5- PHENYL-THIOPHENE-2-CARBOXYLIC ACID]
The IC50 of the first is lower: less than 5 µM for the first, 5 to 20 µM for the second. The first is the more potent here.

`CC1CCC(C(=O)N(c2cc(-c3ccccc3)sc2C(=O)O)C2COCOC2)CC1` (stereo not drawn) [Compound 554, 3-[[1,3]DIOXAN-5-YL-(4-METHYL- CYCLOHEXANECARBONYL)-AMINO]-5- PHENYL-THIOPHENE-2-CARBOXYLIC ACID] and `CC1CCC(C(=O)N(c2cc(-c3ccccc3)sc2C(=O)O)C(C)C)C(O)C1` (stereo not drawn) [Compound 409, 3-[(2-HYDROXY-4-METHYL- CYCLOHEXANECARBONYL)-ISOPROPYL- AMINO]-5-PHENYL-THIOPHENE-2- CARBOXYLIC ACID] cannot be ordered by IC50: less than 5 µM for the first, less than 5 µM for the second.

First: C=CCN(C(=O)Cc1ccc(OC)cc1)c1cc(-c2ccccc2)sc1C(=O)O [Compound 491, 3-{ALLYL-[2-(4-METHOXY-PHENYL)- ACETYL]-AMINO}-5-PHENYL-THIOPHENE- 2-CARBOXYLIC ACID]
Second: CCCC(=O)N(Cc1cccc(OC)c1)c1cc(-c2ccccc2)sc1C(=O)O [Compound 475, 3-[BUTYRYL-(3-METHOXY-BENZYL)- AMINO]-5-PHENYL-THIOPHENE-2- CARBOXYLIC ACID]
The IC50 of the first is higher: greater than 20 µM for the first, 5 to 20 µM for the second. The second is the more potent here.

First: CC1CCC(C(=O)N(c2cc(C3CCN(C)CC3)sc2C(=O)O)C(C)C)CC1 (stereo not drawn) [Compound 536, 3-[ISOPROPYL-(4-METHYL- CYCLOHEXANECARBONYL)-AMINO]-5-(1- METHYL-PIPERIDIN-4-YL)-THIOPHENE-2- CARBOXYLIC ACID]
Second: CC(C)(C)c1ccc(CN(C(=O)C2CC2)c2cc(-c3ccccc3)sc2C(=O)O)cc1 [Compound 438, 3-[(4-TERT-BUTYL-BENZYL)- CYCLOPROPANECARBONYL-AMINO]-5- PHENYL-THIOPHENE-2-CARBOXYLIC ACID]
The IC50 of the first is lower: less than 5 µM for the first, 5 to 20 µM for the second.

`CC(C)(C)OC(=O)N1CCC(N(C(=O)c2ccc(Cl)cc2Cl)c2cc(-c3ccccc3)sc2C(=O)O)C1` (stereo not drawn) [Compound 499, 3-[(2-CARBOXY-5-PHENYL-THIOPHEN-3- YL)-(2,4-DICHLORO-BENZOYL)-AMINO]- PYRROLIDINE-1-CARBOXYLIC ACID #TERT!-BUTYL ESTER] and `CC(c1ccccc1)N(C(=O)c1ccc(Cl)cc1Cl)c1cc(-c2ccccc2)sc1C(=O)O` (stereo not drawn) [Compound 403, 3-[(2,4-DICHLORO-BENZOYL)-(1-PHENYL- ETHYL)-AMINO]-5-PHENYL-THIOPHENE- 2-CARBOXYLIC ACID] cannot be ordered by IC50: less than 5 µM for the first, less than 5 µM for the second.

`Cc1ccc(C(=O)N(c2cc(-c3ccccc3)sc2C(=O)O)C(C)C)c(C#N)c1` [Compound 431, 3-[(2-CYANO-4-METHYL-BENZOYL)- ISOPROPYL-AMINO]-5-PHENYL- THIOPHENE-2-CARBOXYLIC ACID] and `CC(C)CC(=O)N(Cc1ccc(F)cc1F)c1cc(-c2ccccc2)sc1C(=O)O` [Compound 486, 3-[(2,4-DIFLUORO-BENZYL)-(3-METHYL- BUTYRYL)-AMINO]-5-PHENYL- THIOPHENE-2-CARBOXYLIC ACID] fall in the same range of IC50: 5 to 20 µM for the first, 5 to 20 µM for the second.

Same assay, conditions: related polymerase activity (Example 27 list); read-out: IC50

Compared with `Cc1ccc(S(=O)(=O)Nc2cc(-c3ccccc3)sc2C(=O)O)c(C)c1` [Compound 136, 3-(2,4-DIMETHYL-BENZENESULFONYLAMINO)-5-PHENYL-THIOPHENE-2-CARBOXYLIC ACID], `Cc1ccc(S(=O)(=O)Nc2cc(-c3ccccc3)sc2C(=O)O)c([N+](=O)[O-])c1` [Compound 177, 3-(4-METHYL-2-NITRO-BENZENESULFONYLAMINO)-5-PHENYL-THIOPHENE-2-CARBOXYLIC ACID] is higher in IC50: less than 5 µM for the first, 5 to 20 µM for the second.

First: CC(C)N(C(=O)C1CCCCCC1)c1cc(-c2ccccc2)sc1C(=O)O [Compound 380, 3-(CYCLOHEPTANECARBONYL- ISOPROPYL-AMINO)-5-PHENYL- THIOPHENE-2-CARBOXYLIC ACID]
Second: CC(C)N(C(=O)c1ccc(Cl)nc1)c1cc(-c2ccccc2)sc1C(=O)O [Compound 246, 3-[(6-CHLORO-PYRIDINE-3-CARBONYL)-ISOPROPYL-AMINO]-5-PHENYL-THIOPHENE-2-CARBOXYLIC ACID]
The IC50 of the first is lower: less than 5 µM for the first, greater than 20 µM for the second.

`CC(C)N(C(=O)c1ccc(Cl)cc1Cl)c1cc(-c2ccc(S(C)(=O)=O)cc2)sc1C(=O)O` [Compound 373, 3-[(2,4-DICHLORO-BENZOYL)- ISOPROPYL-AMINO]-5-(4- METHANESULFONYL-PHENYL)- THIOPHENE-2-CARBOXYLIC ACID] and `CC(C)N(C(=O)c1ccc(Cl)cc1Cl)c1cc(-c2ccc([S+](C)[O-])cc2)sc1C(=O)O` (stereo not drawn) [Compound 374, 3-[(2,4-DICHLORO-BENZOYL)- ISOPROPYL-AMINO]-5-(4- METHANESULFINYL-PHENYL)- THIOPHENE-2-CARBOXYLIC ACID] cannot be ordered by IC50: less than 5 µM for the first, less than 5 µM for the second.

First: COc1ccccc1-c1cc(NS(=O)(=O)c2ccccc2C)c(C(=O)O)s1 [Compound 104, 5-(2-METHOXY-PHENYL)-3-(TOLUENE-2-SULFONYLAMINO)-THIOPHENE-2-CARBOXYLIC ACID]
Second: Cc1ccccc1S(=O)(=O)Nc1cc(-c2ccccc2F)sc1C(=O)O [Compound 101, 5-(2-FLUORO-PHENYL)-3-(TOLUENE-2-SULFONYLAMINO)-THIOPHENE-2-CARBOXYLIC ACID]
The IC50 of the first is higher: 5 to 20 µM for the first, less than 5 µM for the second.

`Cc1ccccc1S(=O)(=O)Nc1cc(-c2ccc(O)cc2)sc1C(=O)O` [Compound 190, 5-(4-HYDROXY-PHENYL)-3-(TOLUENE-2-SULFONYLAMINO)-THIOPHENE-2-CARBOXYLIC ACID] and `O=C(O)c1sc(-c2ccccc2)cc1NS(=O)(=O)c1ccccc1Br` [Compound 76, 3-(2-BROMO-BENZENESULFONYLAMINO)-5-PHENYL-THIOPHENE-2-CARBOXYLIC ACID] cannot be ordered by IC50: less than 5 µM for the first, less than 5 µM for the second.

`C=CCN(C(=O)Cc1c(Cl)cccc1Cl)c1cc(-c2ccccc2)sc1C(=O)O` [Compound 353, 3-{ALLYL-[2-(2,6-DICHLORO-PHENYL)- ACETYL]-AMINO}-5-PHENYL-THIOPHENE- 2-CARBOXYLIC ACID] and `C=CCN(C(=O)Cc1ccc(F)cc1Cl)c1cc(-c2ccccc2)sc1C(=O)O` [Compound 349, 3-{ALLYL-[2-(2-CHLORO-4-FLUORO- PHENYL)-ACETYL]-AMINO}-5-PHENYL- THIOPHENE-2-CARBOXYLIC ACID] fall in the same range of IC50: 5 to 20 µM for the first, 5 to 20 µM for the second.

First: O=C(O)c1sc(-c2ccccc2)cc1NS(=O)(=O)c1ccc(F)cc1C(F)(F)F [Compound 141, 3-(4-FLUORO-2-TRIFLUOROMETHYL-BENZENESULFONYLAMINO)-5-PHENYL-THIOPHENE-2-CARBOXYLIC ACID]
Second: O=C(O)c1sc(-c2ccccc2)cc1NS(=O)(=O)c1ccc(F)c(F)c1 [Compound 143, 3-(3,4-DIFLUORO-BENZENESULFONYLAMINO)-5-PHENYL-THIOPHENE-2-CARBOXYLIC ACID]
The IC50 of the first is higher: 5 to 20 µM for the first, less than 5 µM for the second. The second is the more potent here.

Compared with `CCCC(=O)N(C)c1cc(-c2ccccc2)sc1C(=O)O` [Compound 385, 3-(BUTYRYL-METHYL-AMINO)-5-PHENYL- THIOPHENE-2-CARBOXYLIC ACID], `CN(C(=O)c1ccc(Cl)cc1)c1cc(-c2ccccc2)sc1C(=O)O` [Compound 73, 3-[(4-CHLORO-BENZOYL)-METHYL-AMINO]-5-PHENYL-THIOPHENE-2-CARBOXYLIC ACID] is lower in IC50: 5 to 20 µM for the first, less than 5 µM for the second. The second is the more potent here.

Compared with `CC(C(=O)O)N(C(=O)c1ccc(Cl)cc1Cl)c1cc(-c2ccccc2)sc1C(=O)O` (stereo not drawn) [Compound 299, 3-[(1-CARBOXY-ETHYL)-(2,4-DICHLORO- BENZOYL)-AMINO]-5-PHENYL- THIOPHENE-2-CARBOXYLIC ACID], `CN(C(=O)c1ccc(C(F)(F)F)c(F)c1)c1cc(-c2ccccc2)sc1C(=O)O` [Compound 279, 3-[(3-FLUORO-4-TRIFLUOROMETHYL-BENZOYL)-METHYL-AMINO]-5-PHENYL-THIOPHENE-2-CARBOXYLIC ACID] is higher in IC50: less than 5 µM for the first, 5 to 20 µM for the second. The first is the more potent here.

First: Cc1ccc(C(=O)N(C)c2cc(-c3cccnc3)sc2C(=O)O)cc1 [Compound 302, 3-[METHYL-(4-METHYL-BENZOYL)- AMINO]-5-PYRIDIN-3-YL-THIOPHENE-2- CARBOXYLIC ACID]
Second: Cc1ccc(C(=O)N(C)c2cc(-c3cc(F)cc(F)c3)sc2C(=O)O)cc1 [Compound 212, 5-(3,5-DIFLUORO-PHENYL)-3-[METHYL-(4-METHYL-BENZOYL)-AMINO]-THIOPHENE-2-CARBOXYLIC ACID]
The IC50 of the first is higher: 5 to 20 µM for the first, less than 5 µM for the second. The second is the more potent here.

First: Cc1ccc(C(=O)Nc2cc(-c3ccccc3)sc2C(=O)O)cc1 [Compound 92, 3-(4-METHYL-BENZOYLAMINO)-5-PHENYL-THIOPHENE-2-CARBOXYLIC ACID]
Second: O=C(O)c1sc(-c2ccccc2)cc1NS(=O)(=O)c1cccc([N+](=O)[O-])c1 [Compound 147, 3-(3-NITRO-BENZENESULFONYLAMINO)-5-PHENYL-THIOPHENE-2-CARBOXYLIC ACID]
The IC50 of the first is higher: 5 to 20 µM for the first, less than 5 µM for the second.

First: Cc1ccc(C(=O)N(c2cc(-c3cccc(C(F)(F)F)c3)sc2C(=O)O)C(C)C)cc1 [Compound 304, 3-[ISOPROPYL-(4-METHYL-BENZOYL)- AMINO]-5-(3-TRIFLUOROMETHYL- PHENYL)-THIOPHENE-2-CARBOXYLIC ACID]
Second: Cc1cc(C)c(C(=O)N(c2cc(-c3ccccc3)sc2C(=O)O)C(C)C)c(C)c1 [Compound 324, 3-[ISOPROPYL-(2,4,6-TRIMETHYL- BENZOYL)-AMINO]-5-PHENYL- THIOPHENE-2-CARBOXYLIC ACID]
The IC50 of the first is lower: less than 5 µM for the first, 5 to 20 µM for the second.

`CN(C(=O)c1cc2ccccc2o1)c1cc(-c2ccccc2)sc1C(=O)O` [Compound 130, 3-[(BENZOFURAN-2-CARBONYL)-METHYL-AMINO]-5-PHENYL-THIOPHENE-2-CARBOXYLIC ACID] showed an IC50 greater than 20 µM.
